Data as given in ChEMBL document CHEMBL5126613, “Novel CA(1-7)M(2-9) Analogs: Synthesis, Characterization, and Antibacterial Evaluation” (ACS Med Chem Lett, 2022).
In brackets after ≈: the same amount, converted by molar mass. One block for each molecule: values may come before it. Bridge positions count the residues as written; N and C are the ends. Peptide text beside a SMILES is read from it.

Assays:
[1] = Hemolytic activity in sheep RBC assessed as hemolysis incubated for 30 mins by microplate reader method; assay type: toxicity, cell-based, Ovis aries, Erythrocyte; details: sheep red blood cells (erythrocytes), read-out: Activity
[2] = Hemolytic activity in sheep RBC assessed as 50% hemolysis incubated for 30 mins by microplate reader method; assay type: toxicity, cell-based, Ovis aries, Erythrocyte; details: sheep red blood cells (erythrocytes)
[3] = (§1) Selectivity index, ratio of HC50 for hemolytic activity in sheep RBC assessed as 50% hemolysis incubated for 30 mins by microplate reader method to MIC for antibacterial activity against Escherichia coli ATCC 25922 assessed as reduction in bacterial growth measured for 18 to 20 hrs by microbroth dilution method; assay type: toxicity; details: sheep red blood cells (erythrocytes), read-out: Selectivity Index
[4] = as §1, with “Pseudomonas aeruginosa” for “Escherichia coli”, “27853” for “25922”; assay type: toxicity; details: sheep red blood cells (erythrocytes), read-out: Selectivity Index
[5] = as §1, with “Staphylococcus aureus” for “Escherichia coli”, “29213” for “25922”; assay type: toxicity; details: sheep red blood cells (erythrocytes), read-out: Selectivity Index
[6] = as §1, with “Bacillus subtilis” for “Escherichia coli”, “6051” for “25922”; assay type: toxicity; details: sheep red blood cells (erythrocytes), read-out: Selectivity Index
Trypsin [7] = target: T1, Trypsin (Homo sapiens, UniProt P07477+P07478+P35030); experiment: Stability of compound assessed as trypsin (unknown origin) mediated compound degradation measured at 4.5 hrs by LCMS analysis; assay type: ADME, protein assay; details: read-out: Drug degradation
Escherichia coli = experiment: Antibacterial activity against Escherichia coli ATCC 25922 assessed as reduction in bacterial growth measured for 18 to 20 hrs by microbroth dilution method; assay type: functional; details: time 18-20 hrs
Pseudomonas aeruginosa = experiment: Antibacterial activity against Pseudomonas aeruginosa ATCC 27853 assessed as reduction in bacterial growth measured for 18 to 20 hrs by microbroth dilution method; assay type: functional; details: time 18-20 hrs
Staphylococcus aureus = experiment: Antibacterial activity against Staphylococcus aureus ATCC 29213 assessed as reduction in bacterial growth measured for 18 to 20 hrs by microbroth dilution method; assay type: functional; details: time 18-20 hrs
Bacillus subtilis = experiment: Antibacterial activity against Bacillus subtilis ATCC 6051 assessed as reduction in bacterial growth measured for 18 to 20 hrs by microbroth dilution method; assay type: functional; details: time 18-20 hrs
Trypsin [8] = target: T1, Trypsin; experiment: Stability of compound assessed as trypsin (unknown origin) mediated compound degradation by measuring H-O1WO3LFO6O7IGAVLO13VL-NH2 level measured at 15 mins by LCMS analysis; assay type: protein assay
Trypsin [9] = target: T1, Trypsin; experiment: Stability of compound assessed as trypsin (unknown origin) mediated compound degradation by measuring H-O1WO3LFO6O7IGAVLO13VL-NH2 level measured at 60 mins by LCMS analysis; assay type: protein assay
Trypsin [10] = target: T1, Trypsin; experiment: Stability of compound assessed as trypsin (unknown origin) mediated compound degradation by measuring H-O1WO3LFO6O7IGAVLO13VL-NH2 level measured at 120 mins by LCMS analysis; assay type: protein assay
Trypsin [11] = target: T1, Trypsin; experiment: Stability of compound assessed as trypsin (unknown origin) mediated compound degradation by measuring H-O1WO3LFO6O7IGAVLO13VL-NH2 level measured at 270 mins by LCMS analysis; assay type: protein assay
Trypsin [12] = target: T1, Trypsin; experiment: Stability of compound assessed as trypsin (unknown origin) mediated compound degradation by measuring H-WO3LFO6-OH level measured at 15 mins by LCMS analysis; assay type: protein assay
Trypsin [13] = target: T1, Trypsin; experiment: Stability of compound assessed as trypsin (unknown origin) mediated compound degradation by measuring H-WO3LFO6-OH level measured at 60 mins by LCMS analysis; assay type: protein assay
Trypsin [14] = target: T1, Trypsin; experiment: Stability of compound assessed as trypsin (unknown origin) mediated compound degradation by measuring H-WO3LFO6-OH level measured at 120 mins by LCMS analysis; assay type: protein assay
Trypsin [15] = target: T1, Trypsin; experiment: Stability of compound assessed as trypsin (unknown origin) mediated compound degradation by measuring H-WO3LFO6-OH level measured at 270 mins by LCMS analysis; assay type: protein assay
Trypsin [16] = target: T1, Trypsin; experiment: Stability of compound assessed as trypsin (unknown origin) mediated compound degradation by measuring H-O1WO3LFO6O7IGAVLO13-OH level measured at 60 mins by LCMS analysis; assay type: protein assay
Trypsin [17] = target: T1, Trypsin; experiment: Stability of compound assessed as trypsin (unknown origin) mediated compound degradation by measuring H-O1WO3LFO6O7IGAVLO13-OH level measured at 120 mins by LCMS analysis; assay type: protein assay
Trypsin [18] = target: T1, Trypsin; experiment: Stability of compound assessed as trypsin (unknown origin) mediated compound degradation by measuring H-O1WO3LFO6O7IGAVLO13-OH level measured at 270 mins by LCMS analysis; assay type: protein assay
Trypsin [19] = target: T1, Trypsin; experiment: Stability of compound assessed as trypsin (unknown origin) mediated compound degradation by measuring H-O7IGAVLO13VL-NH2 level measured at 60 mins by LCMS analysis; assay type: protein assay
Trypsin [20] = target: T1, Trypsin; experiment: Stability of compound assessed as trypsin (unknown origin) mediated compound degradation by measuring H-O7IGAVLO13VL-NH2 level measured at 120 mins by LCMS analysis; assay type: protein assay
Trypsin [21] = target: T1, Trypsin; experiment: Stability of compound assessed as trypsin (unknown origin) mediated compound degradation by measuring H-O7IGAVLO13VL-NH2 level measured at 270 mins by LCMS analysis; assay type: protein assay
Trypsin [22] = target: T1, Trypsin; experiment: Stability of compound assessed as trypsin (unknown origin) mediated compound degradation by measuring H-O1WO3LFO6-OH level measured at 15 mins by LCMS analysis; assay type: protein assay
Trypsin [23] = target: T1, Trypsin; experiment: Stability of compound assessed as trypsin (unknown origin) mediated compound degradation by measuring H-O1WO3LFO6-OH level measured at 60 mins by LCMS analysis; assay type: protein assay
Trypsin [24] = target: T1, Trypsin; experiment: Stability of compound assessed as trypsin (unknown origin) mediated compound degradation by measuring H-O1WO3LFO6-OH level measured at 120 mins by LCMS analysis; assay type: protein assay
Trypsin [25] = target: T1, Trypsin; experiment: Stability of compound assessed as trypsin (unknown origin) mediated compound degradation by measuring H-O1WO3LFO6-OH level measured at 270 mins by LCMS analysis; assay type: protein assay
Trypsin [26] = target: T1, Trypsin; experiment: Stability of compound assessed as trypsin (unknown origin) mediated compound degradation by measuring H-O1WO3LFO6O7-OH level measured at 15 mins by LCMS analysis; assay type: protein assay
Trypsin [27] = target: T1, Trypsin; experiment: Stability of compound assessed as trypsin (unknown origin) mediated compound degradation by measuring H-O1WO3LFO6O7-OH level measured at 60 mins by LCMS analysis; assay type: protein assay
Trypsin [28] = target: T1, Trypsin; experiment: Stability of compound assessed as trypsin (unknown origin) mediated compound degradation by measuring H-O1WO3LFO6O7-OH level measured at 120 mins by LCMS analysis; assay type: protein assay
Trypsin [29] = target: T1, Trypsin; experiment: Stability of compound assessed as trypsin (unknown origin) mediated compound degradation by measuring H-O1WO3LFO6O7-OH level measured at 270 mins by LCMS analysis; assay type: protein assay
Trypsin [30] = target: T1, Trypsin; experiment: Stability of compound assessed as trypsin (unknown origin)-mediated compound degradation measured at 5 mins by LCMS analysis; assay type: ADME, protein assay
Trypsin [31] = target: T1, Trypsin; experiment: Stability of compound assessed as trypsin (unknown origin)-mediated compound degradation measured at 3 mins by LCMS analysis; assay type: ADME, protein assay; details: 0.05 h

Molecule: CC[C@H](C)[C@H](NC(=O)[C@H](CCCN)NC(=O)[C@H](CCCN)NC(=O)[C@H](Cc1ccccc1)NC(=O)[C@H](CC(C)C)NC(=O)[C@H](CCCN)NC(=O)[C@H](Cc1c[nH]c2ccccc12)NC(=O)[C@@H](N)CCCN)C(=O)NCC(=O)N[C@@H](C)C(=O)N[C@H](C(=O)N[C@@H](CC(C)C)C(=O)N[C@@H](CCCN)C(=O)N[C@H](C(=O)N[C@@H](CC(C)C)C(N)=O)C(C)C)C(C)C [listing 1 of 2 here]
hemolysis at 0.5 h [1]: 10% | HC50 at 0.5 h [2]: > 1000 µg/mL | selectivity ratio at 30 min [3]: > 250 | selectivity ratio at 30 min [4]: > 125 | selectivity ratio at 30 min [5]: > 125 | selectivity ratio at 30 min [6]: > 31 | metabolised at 4.5 h (Trypsin [7]): 58%

Molecule: CC[C@H](C)[C@H](NC(=O)[C@H](CCCN)NC(=O)[C@H](CCCN)NC(=O)[C@H](Cc1ccccc1)NC(=O)[C@H](CC(C)C)NC(=O)[C@H](CCCN)NC(=O)[C@H](Cc1c[nH]c2ccccc12)NC(=O)[C@@H](N)CCCN)C(=O)NCC(=O)N[C@@H](C)C(=O)N[C@H](C(=O)N[C@@H](CC(C)C)C(=O)N[C@@H](CCCN)C(=O)N[C@H](C(=O)N[C@@H](CC(C)C)C(N)=O)C(C)C)C(C)C [listing 2 of 2 here]
MIC (Escherichia coli): 4 µg/mL (≈ 2.35 µM) | MIC (Pseudomonas aeruginosa): 8 µg/mL (≈ 4.71 µM) | MIC (Staphylococcus aureus): 8 µg/mL (≈ 4.71 µM) | MIC (Bacillus subtilis): 32 µg/mL (≈ 18.8 µM)

Molecule: CC[C@H](C)[C@H](NC(=O)[C@H](CCCN)NC(=O)[C@H](CCCN)NC(=O)[C@H](Cc1ccccc1)NC(=O)[C@H](CC(C)C)NC(=O)[C@H](CCCN)NC(=O)[C@H](Cc1c[nH]c2ccccc12)NC(=O)[C@@H](N)CCCN)C(=O)NCC(=O)N[C@H](C)C(=O)N[C@H](C(=O)N[C@@H](CC(C)C)C(=O)N[C@@H](CCCN)C(=O)N[C@H](C(=O)N[C@@H](CC(C)C)C(N)=O)C(C)C)C(C)C
Drug degradation (Trypsin [8]): 98.1% | Drug degradation (Trypsin [9]): 89.4% | Drug degradation (Trypsin [10]): 79.4% | Drug degradation (Trypsin [11]): 58.3% | Drug degradation (Trypsin [12]): 0.6% | Drug degradation (Trypsin [13]): 2.8% | Drug degradation (Trypsin [14]): 5.6% | Drug degradation (Trypsin [15]): 12.1% | Drug degradation (Trypsin [16]): 0.5% | Drug degradation (Trypsin [17]): 1% | Drug degradation (Trypsin [18]): 2.2% | Drug degradation (Trypsin [19]): 0.9% | Drug degradation (Trypsin [20]): 1.6% | Drug degradation (Trypsin [21]): 2.5% | Drug degradation (Trypsin [22]): 0.9% | Drug degradation (Trypsin [23]): 4.3% | Drug degradation (Trypsin [24]): 8.4% | Drug degradation (Trypsin [25]): 17.3% | Drug degradation (Trypsin [26]): 0.4% | Drug degradation (Trypsin [27]): 2.1% | Drug degradation (Trypsin [28]): 4% | Drug degradation (Trypsin [29]): 7.6%

MIC (Escherichia coli): 2 µg/mL (≈ 1.01 µM) | MIC (Pseudomonas aeruginosa): 16 µg/mL (≈ 8.1 µM) | MIC (Staphylococcus aureus): 4 µg/mL (≈ 2.03 µM) | MIC (Bacillus subtilis): 8 µg/mL (≈ 4.05 µM) | Stability (Trypsin [30]): Stable
Molecule: CC[C@H](C)[C@@H]1NC(=O)[C@H](CCCCN)NC(=O)[C@H](CCCCN)NC(=O)[C@H](Cc2ccccc2)NC(=O)[C@H](CC(C)C)NC(=O)[C@H](CCCCN)NC(=O)[C@H](Cc2c[nH]c3ccccc23)NC(=O)[C@H](CCCCN)NC(=O)[C@@H](N)CSSC[C@@H](C(N)=O)NC(=O)[C@H](CC(C)C)NC(=O)[C@H](C(C)C)NC(=O)[C@H](CCCCN)NC(=O)[C@H](CC(C)C)NC(=O)[C@H](C(C)C)NC(=O)[C@H](C)NC(=O)CNC1=O (H-CKWKLFKKIGAVLKVLC-NH2; disulfide 1-17)
hemolysis at 0.5 h [1]: 10% | HC50 at 0.5 h [2]: > 1000 µg/mL | selectivity ratio at 30 min [3]: > 500 | selectivity ratio at 30 min [4]: > 63 | selectivity ratio at 30 min [5]: > 250 | selectivity ratio at 30 min [6]: > 125

MIC (Escherichia coli): 4 µg/mL | MIC (Pseudomonas aeruginosa): 8 µg/mL | MIC (Staphylococcus aureus): 4 µg/mL | MIC (Bacillus subtilis): 32 µg/mL | Stability (Trypsin [31]): Unstable
Molecule: H-KWKLFKKIGAVLKVL-NH2
hemolysis at 0.5 h [1]: 10% | HC50 at 0.5 h [2]: 690 µg/mL | selectivity ratio at 30 min [3]: 173 | selectivity ratio at 30 min [4]: 86 | selectivity ratio at 30 min [5]: 173 | selectivity ratio at 30 min [6]: 22
